The values that follow come from patent US4518581A, “Imparting low- or anti-cariogenic property to orally-usable products” (Kabushiki Kaisha Hayashibara Seibutsu Kagaku Kenkyujo, priority 1981, dated 1985).

In assay [1] the target is T1, water-insoluble glucan producing enzyme (Streptococcus downei, UniProt P27470).
T1 construct: endogenous in cells; host or cells: Streptococcus mutans 6715 strain (today S. sobrinus), culture supernatant, ammonium sulfate precipitate, dialyzed
The assay can be described thus: Effect of saccharides on formation of water-insoluble glucan from sucrose (Experiment 3). The class given is biochemical, Streptococcus mutans 6715 strain. The conditions noted are these: 1 ml 4 w/v % sucrose plus 1 ml 4 w/v % saccharide, 0.02 units enzyme, 37° C., 16 hours; for A: amounts of water-insoluble glucan formed: sucrose control 300. Here is the method:
After completion of the cultivation, the culture was separated into cell precipitant and supernatant. Thereafter, to the supernatant was added with ammonium sulfate to give 60% saturation, and the resultant precipitant was dialyzed against 0.1M phosphate buffer (pH 7.2) to obtain an aqueous solution containing the enzyme.
The titers of the enzyme were assayed as follows: A mixture solution, consisting of 1 ml of 0.2M aqueous sucrose solution, 1 ml of water, 1 ml of 0.1M phosphate buffer containing 0.05 w/v % NaN3, and 0.5 ml of the enzyme solution (below 0.05 units), is incubated at 37° C. for 9 hours, followed by centrifugation of the reaction mixture. The resultant precipitant is mixed with 4 ml of 0.5N sodium hydroxide solution, and then incubated at this temperature for an additional one hour to dissolve the precipitant. The amount of water-insoluble glucan formed during the enzymatic reaction is then measured. One unit of the enzyme is defined as the amount of enzyme that transfers 1 μmole glucose from sucrose to the water-insoluble glucan in one minute.
Effects of some saccharides on the formation of water-insoluble glucan were tested: Water-insoluble glucan formation and inhibition thereof were determined according to the enzyme assay method as described in EXPERIMENT 1, except that the mixture solution contained sucrose, or sucrose and each saccharide as listed in TABLE I. The experiment was carried out as follows: A mixture solution, consisting of 1 ml of 4 w/v % aqueous sucrose solution, 1 ml of 4 w/v % aqueous solution of each saccharide as listed in TABLE I, 1.5 ml of 0.1M phosphate buffer containing 0.05 w/v % NaN3, and 0.5 ml of the enzyme solution (0.02 units), was incubated at 37° C. for 16 hours, and the water-insoluble glucan formation in the reaction mixture was determined according to the enzyme assy method.
In a control experiment, 1 ml of the above described saccharide solution was replaced with the same amount of water.
The inhibition degree was calculated with following equation:
Inhibition degree (%)=100-A/B×100
where A and B are respective amounts of the water-insoluble glucan formed (μg/ml) when the mixture solution contained sucrose or sucrose and each of the saccharides.

The subject of assay [2] is Streptococcus mutans 6715 strain. Put plainly: Organic acid formation from saccharides by Streptococcus mutans cells, pH-measurement (Experiment 4). The conditions noted are these: 37° C., 30 minutes; for pH-Level of the reaction mixture (organic acid formation): cell suspension, Stephan's buffer (pH 7.0), saccharide solution. It is filed as cell-based. On the procedure: Organic acid formation from some saccharides by Streptococcus mutans was tested: Streptococcus mutans 6715 strain was cultivaed similarly as in EXPERIMENT 1, and the cells, obtained by centrifuging the culture, were washed with 0.9 w/v % sodium chloride solution, followed by additional centrifugation. Two ml of a mixture solution, consisting of 0.2 ml of the cell suspension, prepared from about 100 ml of the culture, 1.5 ml of Stephan's buffer, and 0.3 ml aqueous solution of each saccharide as listed in TABLE II, was incubated at 37° C. for 30 minutes, followed by pH-measurement of the reaction mixture. The Stephan's buffer was prepared by the method as reported by R. M. Stephan et al., Journal of Dental Research, Vol.26, pp.15-41 (1947): One ml of Solution I, prepared by dissolving 17.89 g Na2 HPO4. 12H2 O, 7.92 g KOH and 6.81 g KH2 PO4 in water to give a final volume of 100 ml, was placed in a 100-ml volumetric flask, and mixed with about 90 ml of water. To the flask was added 1 ml of Solution II, prepared by dissolving 4.54 g KH2 PO4, 0.32 g MgSO4.7H2 O, 0.57 g CaSO4.2H2 O and 10 ml of 3.5% hydrochloric acid solution in water to give a final volume of 100 ml. This mixture was diluted with additional water to obtain 100 ml of Stephan's buffer (pH 7.0).
The results are given in TABLE II, wherein the organic acid formation from the saccharides can be estimated by the pH-values.

T1 sequence (P27470 39-1592): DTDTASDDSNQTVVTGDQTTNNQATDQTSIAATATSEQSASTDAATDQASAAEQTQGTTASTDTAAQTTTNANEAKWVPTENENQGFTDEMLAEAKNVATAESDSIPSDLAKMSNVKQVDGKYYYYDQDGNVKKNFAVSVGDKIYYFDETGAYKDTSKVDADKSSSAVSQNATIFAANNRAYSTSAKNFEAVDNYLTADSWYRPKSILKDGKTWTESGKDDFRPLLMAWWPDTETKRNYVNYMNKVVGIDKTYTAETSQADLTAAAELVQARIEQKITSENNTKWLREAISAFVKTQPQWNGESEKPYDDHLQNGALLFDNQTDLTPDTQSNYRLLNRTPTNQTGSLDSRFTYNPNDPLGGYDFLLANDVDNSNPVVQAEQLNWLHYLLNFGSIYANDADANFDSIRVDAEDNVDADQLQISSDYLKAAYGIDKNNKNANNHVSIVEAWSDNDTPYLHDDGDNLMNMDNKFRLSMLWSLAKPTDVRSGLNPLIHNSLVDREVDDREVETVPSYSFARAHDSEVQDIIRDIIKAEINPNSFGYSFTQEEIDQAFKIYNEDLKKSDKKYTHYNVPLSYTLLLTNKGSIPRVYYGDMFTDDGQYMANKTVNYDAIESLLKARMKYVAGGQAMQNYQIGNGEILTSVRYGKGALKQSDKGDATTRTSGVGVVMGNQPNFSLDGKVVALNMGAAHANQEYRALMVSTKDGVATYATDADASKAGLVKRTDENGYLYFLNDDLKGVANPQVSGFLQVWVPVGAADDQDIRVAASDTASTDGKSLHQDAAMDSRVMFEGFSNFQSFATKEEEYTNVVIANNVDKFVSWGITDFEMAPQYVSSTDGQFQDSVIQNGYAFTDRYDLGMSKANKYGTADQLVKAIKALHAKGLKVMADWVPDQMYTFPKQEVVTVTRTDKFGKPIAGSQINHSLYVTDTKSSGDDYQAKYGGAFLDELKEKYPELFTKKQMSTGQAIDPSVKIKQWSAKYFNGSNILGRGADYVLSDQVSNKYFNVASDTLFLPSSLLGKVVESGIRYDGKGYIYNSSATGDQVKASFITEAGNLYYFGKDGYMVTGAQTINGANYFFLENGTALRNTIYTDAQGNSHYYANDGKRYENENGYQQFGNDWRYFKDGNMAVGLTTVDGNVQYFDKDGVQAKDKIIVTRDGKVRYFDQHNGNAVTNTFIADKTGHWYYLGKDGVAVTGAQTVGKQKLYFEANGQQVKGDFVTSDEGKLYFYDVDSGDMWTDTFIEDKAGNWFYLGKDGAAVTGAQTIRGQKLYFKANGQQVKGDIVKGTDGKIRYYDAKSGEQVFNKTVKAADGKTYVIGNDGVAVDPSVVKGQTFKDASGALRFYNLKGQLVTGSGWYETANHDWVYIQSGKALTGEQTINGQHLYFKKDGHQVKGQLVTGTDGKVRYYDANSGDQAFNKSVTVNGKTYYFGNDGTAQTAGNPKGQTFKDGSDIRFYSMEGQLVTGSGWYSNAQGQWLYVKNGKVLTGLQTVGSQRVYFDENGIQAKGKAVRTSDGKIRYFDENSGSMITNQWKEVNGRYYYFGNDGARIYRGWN

Turning to `OC[C@@H](O)[C@@H](O[C@H]1O[C@H](CO)[C@@H](O[C@H]2O[C@H](CO)[C@@H](O)[C@H](O)[C@H]2O)[C@H](O)[C@H]1O)[C@H](O)[C@@H](O)CO` [Maltotriitol], in assay [1], the “B: inhibition degree on water-insoluble glucan formation” value (“B: inhibition degree” below) stood at 13% and the “A: amounts of water-insoluble glucan formed” value (“A: amounts” for short) worked out at 262 µg/mL. Moreover, in assay [2], the “pH-Level of the reaction mixture (organic acid formation)” value (“pH-Level of the reaction mixture” for short) was found to be 7.0.

Regarding `OC[C@@H](O)[C@@H](O[C@H]1O[C@H](CO)[C@@H](O)[C@H](O)[C@H]1O)[C@H](O)[C@@H](O)CO` [Maltitol], the “pH-Level of the reaction mixture” value in assay [2] was 7.0.

For `OC[C@@H](O)[C@@H](O)[C@H](O)[C@H](O)CO` [Mannitol], in assay [1], the “B: inhibition degree” value was 5% and the “A: amounts” value was 286 µg/mL. For the same compound, the “pH-Level of the reaction mixture” value in assay [2] worked out at 7.0. For `OC[C@@H](O)[C@@H](O[C@H]1O[C@H](CO)[C@@H](O[C@H]2O[C@H](CO[C@H]3O[C@H](CO)[C@@H](O)[C@H](O)[C@H]3O)[C@@H](O)[C@H](O)[C@H]2O)[C@H](O)[C@H]1O)[C@H](O)[C@@H](O)CO` [Isomaltosyl maltitol, 4^2 -O-α--isomaltosyl maltitol], the “A: amounts” value in assay [1] was determined as 48 µg/mL. For the same compound, the “organic acid formation from the saccharide” value in assay [2] (Streptococcus mutans 6715 cells) is “no organic acid formation”. In assay [2], the “pH-Level of the reaction mixture” value stood at 7.0.

Regarding `OC[C@@H](O)[C@@H](O)[C@H](O)[C@@H](O)CO` [Sorbitol], in assay [1], the “B: inhibition degree” value came to 8% and the “A: amounts” value is 290 µg/mL. For the same compound, the “pH-Level of the reaction mixture” value in assay [2] was 7.0. For the compound `C[C@@H]1OC(O)[C@H](O)[C@H](O)[C@H]1O` (stereo partly drawn) [Rhamnose, L-Rhamnose], in assay [1], the “B: inhibition degree” value worked out at 0% and the “A: amounts” value came to 300 µg/mL. The “pH-Level of the reaction mixture” value in assay [2] came out at 7.0. `OC[C@@H](O)[C@@H](O[C@H]1O[C@H](CO)[C@@H](O[C@H]2O[C@H](CO)[C@@H](O[C@H]3O[C@H](CO)[C@@H](O[C@H]4O[C@H](CO)[C@@H](O)[C@H](O)[C@H]4O)[C@H](O)[C@H]3O)[C@H](O)[C@H]2O)[C@H](O)[C@H]1O)[C@H](O)[C@@H](O)CO` [Maltopentaitol]: in assay [1], the “B: inhibition degree” value is 12% and the “A: amounts” value was 265 µg/mL. Moreover, the “pH-Level of the reaction mixture” value in assay [2] is on record as 7.0. With `OC[C@H]1O[C@@](CO)(O[C@H]2O[C@H](CO)[C@@H](O)[C@H](O)[C@H]2O)[C@@H](O)[C@@H]1O` [Sucrose], the “pH-Level of the reaction mixture” value in assay [2] was found to be 4.0. The same measure, in the same setting: the result for `OC[C@H]1OC(O)[C@H](O)[C@@H](O)[C@@H]1O` (stereo partly drawn) [D-Glucose] reads 4.0; that for `OC[C@H]1O[C@H](O[C@H]2[C@H](O)[C@@H](O)[C@H](O)O[C@@H]2CO)[C@H](O)[C@@H](O)[C@@H]1O` [Maltose], 4.0; that for `OC[C@H]1O[C@@H](O[C@H]2[C@H](O)[C@@H](O)C(O)O[C@@H]2CO)[C@H](O)[C@@H](O)[C@@H]1O` (stereo partly shown) [Cellobiose], 7.0. Consider `OC[C@@H](O)[C@@H](O[C@H]1O[C@H](CO)[C@@H](O[C@H]2O[C@H](CO)[C@@H](O[C@H]3O[C@H](CO)[C@@H](O)[C@H](O)[C@H]3O)[C@H](O)[C@H]2O)[C@H](O)[C@H]1O)[C@H](O)[C@@H](O)CO` [Maltotetraitol], for which, in assay [1], the “B: inhibition degree” value came to 21% and the “A: amounts” value was found to be 236 µg/mL. Take `OC[C@H]1OC(O)[C@H](O)[C@@H](O)[C@H]1O` (stereo partly drawn) [D-Galactose]: the “pH-Level of the reaction mixture” value in assay [2] is 7.0. Same read-out and setting: next, `OC[C@H]1OC(O)[C@@H](O)[C@@H](O)[C@@H]1O` (stereo partly drawn) [D-Mannose]: 5.5; `OC[C@@H](O)[C@@H](O[C@@H]1O[C@H](CO)[C@H](O)[C@H](O)[C@H]1O)[C@H](O)[C@@H](O)CO` [Lactitol]: 7.0.
